CN1CC(=O)N2[C@H](c3ccc4c(c3)OCO4)c3[nH]c4ccccc4c3C[C@@H]2C1=O
solubility (mole fraction)
Details	298.15 K	303.15 K	308.15 K	313.15 K	318.15 K	323.15 K	328.15 K	333.15 K
in transcutol	0.00876	0.00973	0.0107	0.0119	0.0133	0.0149	0.0166	0.0182
in water	5.74e-07	7.59e-07	1.02e-06	1.34e-06	1.75e-06	2.26e-06	2.77e-06	3.45e-06

From BigSolDB 2.1
